This note sets out measurements from ChEMBL document CHEMBL6177939, “The role of silicon in drug discovery: a review” (RSC Med Chem, 2024).

In brackets after ≈: the same amount, converted by molar mass.

The test system of one series is Aedes aegypti. Kind of series: […] activity against Aedes aegypti assessed as protection time at 0.5 microg/cm. It is filed as functional.
The target in series [1] is Sigma non-opioid intracellular receptor 1 (Cavia porcellus, UniProt Q60492). In words: Binding affinity to guinea pig sigma 1 receptor assessed as inhibition constant.
The next series has as its system Plutella xylostella. Kind of series: Toxicity in Plutella xylostella assessed as lethal dose. The format is organism-based.
The subject of a further series is Mythimna separata. Kind of series: Toxicity in Mythimna separata assessed as lethal dose. The format is organism-based.
For a further series, the system named is Bacillus subtilis. Kind of series: Antibacterial activity against Bacillus subtilis assessed as reduction in bacterial growth incubated for 12 hrs by broth micr-dilution method. The format is functional.
Series [2] deals with Escherichia coli. Kind of series: Antibacterial activity against Escherichia coli assessed as reduction in bacterial growth incubated for 12 hrs by broth micr-dilution method. It is filed as functional.
Series [3] relates to Staphylococcus aureus. In words: Antibacterial activity against Staphylococcus aureus assessed as reduction in bacterial growth incubated for 12 hrs by broth micr-dilution method. It is filed as functional.
For the next series, the system named is Vibrio cholerae. In words: Antibacterial activity against Vibrio cholerae assessed as inhibition of bacterial growth. The format is functional.
For another series, the system named is HCT-116. In words: Antiproliferative activity against human HCT-116 cells assessed as reduction in cell viability incubated for 72 hrs by MTT assay. The format is functional, cell-based. The following applies: HCT-116, 72 h.
A further series addresses Acetylcholinesterase (Homo sapiens, UniProt P22303). Kind of series: Inhibition of AChE (unknown origin) using acetylthiocholine iodide as substrate by Ellman's method.
Another series concerns BJAB. Kind of series: Cytotoxicity against human BJAB cells assessed as lethal dose measured after 48 hrs. It is filed as functional. Conditions: read-out: LD50 (the source's name).
Series [4] relates to Staphylococcus aureus. In words: Antibacterial activity against Staphylococcus aureus ATCC 25923 assessed as reduction in cell growth incubated for 18 hrs by two-fold serial dilution method. It is filed as functional.
Series [5] deals with Escherichia coli. In words: Antibacterial activity against Escherichia coli ATCC 25922 assessed as reduction in cell growth incubated for 18 hrs by two-fold serial dilution method. The format is functional.
The test system of the next series is Acinetobacter baumannii. In words: Antibacterial activity against Acinetobacter baumannii ATCC 19606 assessed as reduction in cell growth incubated for 18 hrs by two-fold serial dilution method. The format is functional.
In series [6] the test system is Pseudomonas aeruginosa. Kind of series: Antibacterial activity against Pseudomonas aeruginosa ATCC 27853 assessed as reduction in cell growth incubated for 18 hrs by two-fold serial dilution method. The format is functional.
The subject of the next series is Bacillus sp. In words: Antibacterial activity against Bacillus sp. ATCC 19986 assessed as reduction in bacterial growth incubated for 24 hrs by CLSI micro-dilution method. The format is functional. The following applies: Bacillus sp. (in: firmicutes). (In general: Broth dilution looks for growth in wells or tubes with falling amounts of substance.)
The next series deals with Penicillium chrysogenum. In words: Antifungal activity against Penicillium chrysogenum ATCC 11709 assessed as reduction in fungal growth incubated for 24 hrs by CLSI micro-dilution method. It is filed as functional.
The test system of series [7] is Pseudomonas aeruginosa. In words: Antibacterial activity against Pseudomonas aeruginosa ATCC 27853 assessed as reduction in bacterial growth incubated for 24 hrs by CLSI micro-dilution method. The format is functional.
Another series has as its system MCF7. Kind of series: Cytotoxicity against human MCF7 cells assessed as reduction in cell viability by XTT assay. It is filed as functional, cell-based.
The test system of a further series is Aspergillus niger. In words: Antifungal activity against Aspergillus niger ATCC 16888 assessed as reduction in fungal growth incubated for 24 hrs by broth micro-dilution method. It is filed as functional.
In the next series the test system is Fusarium solani. Kind of series: Antifungal activity against Fusarium solani ATCC 20327 assessed as reduction in fungal growth incubated for 24 hrs by CLSI micro-dilution method. It is filed as functional.
The test system of series [8] is HepG2. Kind of series: Cytotoxicity against human HepG2 cells assessed as reduction in cell viability by XTT assay. It is filed as functional, cell-based.
The nature of series [9]: Acute toxicity in po dosed mouse assessed as lethal dose. It is filed as organism-based. The following applies: in vivo.
A further series relates to Giardia intestinalis. In words: Antiparasitic activity against Giardia intestinalis Portland 1 assessed as reduction in parasite growth incubated for 48 hrs by MTT assay. The format is functional, organism-based. The following applies: Giardia duodenalis, Portland 1, 48 h. A general note: Tetrazolium dyes change colour on reduction, which living cells bring about.
A further series relates to Entamoeba histolytica. Kind of series: Antiparasitic activity against Entamoeba histolytica HM-1:IMSS assessed as reduction in parasite growth incubated for 48 hrs by MTT assay. The format is functional, organism-based.
The subject of series [10] is HepG2. In words: Antiproliferative activity against human HepG2 cells. It is filed as functional, cell-based.
Another series has as its system NIH3T3. In words: Cytotoxicity against mouse NIH3T3 cells assessed as reduction in cell growth by measuring lethal concentration for 72 hrs by MTT assay. It is filed as toxicity, cell-based. The following applies: nih3t3, 72 h.
The subject of another series is MG-22A. In words: Cytotoxicity against mouse MG-22A cells assessed as reduction in cell growth by measuring lethal concentration for 72 hrs by MTT assay. It is filed as functional.
The next series has as its system HT-1080. In words: Cytotoxicity against human HT-1080 cells assessed as reduction in cell growth by measuring lethal concentration for 72 hrs by MTT assay. The format is functional.
For series [11], the target named is Angiotensin-converting enzyme (Homo sapiens, UniProt P12821). Kind of series: Inhibition of ACE (unknown origin) using N-[3-(2-furyl)-acryloyl]- L -phenylalanylglycylglycin as substrate incubated for 5 mins.
The subject of another series is MDA-MB-435. Kind of series: Cytotoxicity against human MDA-MB-435 cells assessed as reduction in cell viability incubated for 48 hrs by SRB assay. It is filed as functional, cell-based. Conditions: MDA-MB-435, 48 h. (Sulforhodamine B stains cellular protein and so reports cell mass.)
In the next series the test system is P388. Kind of series: Antiproliferative activity against mouse P388 cells. It is filed as functional, cell-based.

Chain of Sigma non-opioid intracellular receptor 1 (Q60492 whole entry): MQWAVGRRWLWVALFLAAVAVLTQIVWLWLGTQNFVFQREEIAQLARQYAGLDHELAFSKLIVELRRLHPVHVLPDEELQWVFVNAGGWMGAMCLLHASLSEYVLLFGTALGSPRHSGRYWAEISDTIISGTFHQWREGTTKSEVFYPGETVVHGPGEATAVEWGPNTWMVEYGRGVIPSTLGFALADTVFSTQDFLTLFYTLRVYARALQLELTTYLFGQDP
Chain of Angiotensin-converting enzyme (P12821 whole entry): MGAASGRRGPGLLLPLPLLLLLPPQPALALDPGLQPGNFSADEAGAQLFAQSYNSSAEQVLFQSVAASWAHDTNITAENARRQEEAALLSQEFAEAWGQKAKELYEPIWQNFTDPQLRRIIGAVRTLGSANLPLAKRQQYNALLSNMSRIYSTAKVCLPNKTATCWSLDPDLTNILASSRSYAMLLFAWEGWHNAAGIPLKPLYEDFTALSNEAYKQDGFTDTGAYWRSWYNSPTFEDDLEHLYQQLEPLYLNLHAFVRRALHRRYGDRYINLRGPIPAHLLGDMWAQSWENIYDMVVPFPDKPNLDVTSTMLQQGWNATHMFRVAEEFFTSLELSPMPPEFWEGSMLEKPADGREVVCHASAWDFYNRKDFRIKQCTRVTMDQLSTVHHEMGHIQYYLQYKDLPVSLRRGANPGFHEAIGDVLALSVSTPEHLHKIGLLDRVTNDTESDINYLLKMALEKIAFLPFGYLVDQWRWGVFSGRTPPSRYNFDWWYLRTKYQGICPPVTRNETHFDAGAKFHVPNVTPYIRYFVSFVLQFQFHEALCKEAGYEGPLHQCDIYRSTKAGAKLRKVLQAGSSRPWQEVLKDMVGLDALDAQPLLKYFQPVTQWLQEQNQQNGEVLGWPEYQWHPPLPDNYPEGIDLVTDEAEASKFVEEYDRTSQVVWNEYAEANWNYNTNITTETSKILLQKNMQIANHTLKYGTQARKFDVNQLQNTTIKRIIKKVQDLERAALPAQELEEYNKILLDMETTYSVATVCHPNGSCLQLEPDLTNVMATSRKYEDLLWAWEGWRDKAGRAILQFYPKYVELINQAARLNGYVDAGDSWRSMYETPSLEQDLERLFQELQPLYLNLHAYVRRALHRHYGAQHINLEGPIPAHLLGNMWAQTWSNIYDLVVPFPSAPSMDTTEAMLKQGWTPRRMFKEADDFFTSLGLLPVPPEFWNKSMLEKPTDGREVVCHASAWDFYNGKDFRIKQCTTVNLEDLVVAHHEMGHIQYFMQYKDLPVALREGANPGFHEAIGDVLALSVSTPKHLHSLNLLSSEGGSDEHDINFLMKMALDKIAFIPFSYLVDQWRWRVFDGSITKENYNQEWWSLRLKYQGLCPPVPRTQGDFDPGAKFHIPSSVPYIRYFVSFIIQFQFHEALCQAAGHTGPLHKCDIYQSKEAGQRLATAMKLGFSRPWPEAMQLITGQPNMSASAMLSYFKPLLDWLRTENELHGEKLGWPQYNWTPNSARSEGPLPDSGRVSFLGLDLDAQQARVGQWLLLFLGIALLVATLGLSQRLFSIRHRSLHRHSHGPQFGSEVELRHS
Chain of Acetylcholinesterase (P22303 whole entry): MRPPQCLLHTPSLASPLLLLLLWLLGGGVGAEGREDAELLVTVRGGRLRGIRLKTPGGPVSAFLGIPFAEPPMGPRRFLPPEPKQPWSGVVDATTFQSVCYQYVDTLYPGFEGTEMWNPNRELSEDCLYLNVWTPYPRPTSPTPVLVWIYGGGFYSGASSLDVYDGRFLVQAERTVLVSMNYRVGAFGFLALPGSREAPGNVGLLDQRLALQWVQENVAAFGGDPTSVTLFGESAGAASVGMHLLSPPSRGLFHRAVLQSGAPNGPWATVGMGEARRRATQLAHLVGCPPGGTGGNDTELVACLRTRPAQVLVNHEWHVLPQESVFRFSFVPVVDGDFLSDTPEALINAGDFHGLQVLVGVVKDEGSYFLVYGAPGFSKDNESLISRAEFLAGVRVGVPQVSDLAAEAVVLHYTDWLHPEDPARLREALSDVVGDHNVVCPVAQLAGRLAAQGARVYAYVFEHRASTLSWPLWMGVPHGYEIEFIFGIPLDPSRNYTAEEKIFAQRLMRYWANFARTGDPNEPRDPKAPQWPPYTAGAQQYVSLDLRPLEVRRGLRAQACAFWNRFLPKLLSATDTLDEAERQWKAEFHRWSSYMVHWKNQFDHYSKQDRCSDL

On to `CC1(C)CCN(C(=O)C2=CCCCC2)CC1`, for which, in the series with Aedes aegypti, the Time came out at 520 min.
Take `COc1ccc(CN2CC[Si]3(CCCc4ccccc43)CC2)cc1`: in series [1], the Ki was 300 nM.
As for `CCS(=O)(=O)c1cc([Si](C)(C)C)cnc1-c1nc2cc(S(=O)(=O)C(F)(F)F)ccc2o1`, the LC50 stood at 300 ng/mL (≈ 0.609 µM) in the series on Plutella xylostella and 4800 ng/mL (≈ 9.74 µM) in the series on Mythimna separata.
As to `Cc1cc(=O)n(Cc2cn(CCC[Si-]345OCC[N+]3(CCO4)CCO5)nn2)c(=O)n1Cc1cn(CCC[Si-]234OCC[N+]2(CCO3)CCO4)nn1` (centres undefined), the MIC50 in the series with Bacillus subtilis, with Escherichia coli [2], with Staphylococcus aureus [3] and with Vibrio cholerae was 180 ng/mL (≈ 0.25 µM) throughout.
On to `CC[Si](CC)(CC)OC1OC(=O)C(Br)=C1Br` (centres undefined), for which the IC50 in the series on HCT-116 turned out to be 1600 nM.
At Acetylcholinesterase, `C[Si]1(Cl)C=C/C(=N\c2ccccc2)C1=P(c1ccccc1)(c1ccccc1)c1ccccc1` (centres undefined) gave a concentration for half-maximal inhibition (IC50) of 113 nM.
With `CC(C)(C)[Si](C)(C)OC[C@H]1C[C@@H](n2cc(Br)c(=O)[nH]c2=O)C=C1CO`, the CC50 in the series with BJAB was 46000 nM.
On to `CC1C[N+]23CC(C)O[Si-]2(CCCN2C(=O)c4ccccc4C2=O)(O1)OC(C)C3` (centres undefined), for which the MIC in the series with Staphylococcus aureus [4], in the series with Escherichia coli [5], with Acinetobacter baumannii and with Pseudomonas aeruginosa [6] was 200 ng/mL (≈ 0.494 µM) each time.
Take `Nc1ccc(O)c(/C=N/CCC[Si-]234OCC[N+]2(CCO3)CCO4)c1` (centres undefined): the MIC in the series on Bacillus sp., in the series on Penicillium chrysogenum, in the series with Pseudomonas aeruginosa [7], with Aspergillus niger and with Fusarium solani was 1200 ng/mL (≈ 3.41 µM) each time. Further, the half-inhibitory concentration (IC50) in the series with MCF7 is 65000 ng/mL (≈ 185 µM); in the series on HepG2 [8], 150000 ng/mL (≈ 427 µM).
On to `CCC[Si](C)(COC(N)=O)COC(N)=O`, for which the LD50 in [9] was greater than 1000 mg/kg.
Consider `C(=N\CCNCCC[Si-]123OCC[N+]1(CCO2)CCO3)/c1ccc2ccc3cccc4ccc1c2c34` (centres undefined), for which the IC50 in the series with Giardia intestinalis amounted to 560 nM; in the series with Entamoeba histolytica, 56900 nM.
For the molecule `C[Si](C)(C)c1cc(C(F)(C(F)(F)F)C(F)(F)F)cc(Br)c1NC(=O)c1cccc(NC(=O)c2ccccc2)c1`, in the series with Mythimna separata, the LC50 amounted to 2000 ng/mL (≈ 3.15 µM).
With `COc1ccc([Si](C)(C)[C@@H]2[C@H](CC(=O)N3CCC[C@H]3CO)O[C@@]3(C(=O)N(Cc4cccc(I)c4)c4ccccc43)[C@@H]2C)cc1`, the half-maximal effective concentration (EC50) in the series on HepG2 [10] is 16600 nM. This lies in the double-digit micromolar range.
Consider `CCCCCCCCCCOCC[N+]1(CCC[Si](C)(C)C)CCc2ccccc2C1.[I-]` (centres undefined), for which the LC50 with NIH3T3, in the series on MG-22A and with HT-1080 was 100 ng/mL throughout.
Consider `c1ccc(CCN2CC[Si]3(CCCc4ccccc43)CC2)cc1`, for which the Ki in series [1] was found to be 300 nM.
`CC(C)CC(NC(=O)c1ccccc1)[Si](C)(O)CC(C)C(=O)N1CCC[C@H]1C(=O)O` (mixture of isomers) had an IC50 in series [11] of 14 nM.
In turn, `CC(C)CC(NC(=O)c1ccccc1)[Si](O)(O)CC(C)C(=O)N1CCC[C@H]1C(=O)O` (mixture of isomers) returned a 50% inhibitory concentration (IC50) in [11] of 3040 nM.
Regarding `CC[C@@]1(O)C(=O)OCc2c1cc1n(c2=O)Cc2cc3ccccc3nc2-1` [CAMPTOTHECIN], the IC50 with MDA-MB-435 was determined as 15 nM.
On to `CCN(CC)C(=O)c1cccc(C)c1` [DIETHYLTOLUAMIDE], for which the Time with Aedes aegypti came to 616 min.
`CCCC(C)(COC(N)=O)COC(N)=O` [MEPROBAMATE]: the LD50 in series [9] worked out at 700 mg/kg.
With `O=C1OC(O)C(Br)=C1Br` (centres undefined) [MUCOBROMIC ACID], in the series with HCT-116, the IC50 was 1300 nM.
`C=C1C[C@](OC)([C@H](O)C(=O)N[C@H]2OCO[C@H]3[C@@H]2O[C@H](C[C@H](O)CO)C(C)(C)[C@@H]3OC)O[C@H](C)[C@@H]1C` [MYCALAMIDE A] gave an IC50 with P388 of 0.1 ng/mL (≈ 0.000199 µM).
`C=C1C[C@](OC)([C@H](O)C(=O)N[C@H]2OCO[C@H]3[C@@H]2O[C@H](C[C@@H](CO)OC)C(C)(C)[C@@H]3OC)O[C@H](C)[C@@H]1C` [MYCALAMIDE B] returned an IC50 in the series with P388 of 0.1 ng/mL (≈ 0.000193 µM).

For orientation: Ki means a dissociation constant, usually derived from enzyme kinetics or from competition with a known ligand. The term LC50 denotes the concentration lethal to half of the exposed cells or organisms. A word on the MIC50: it is an inhibitory concentration at the 50% level, which refers to growth in some studies and to a panel of isolates in others. The term IC50 denotes the concentration needed to halve the response being measured. The term MIC denotes the lowest concentration found to suppress growth. Usually LD50 stands for the dose expected to kill half of the subjects tested. What is called EC50 is the concentration giving half of the maximal effect. Low readings indicate greater potency, high ones weaker potency.
